Data from patent US12655116B2, “Substituted isophthalic acid diamides” (Bayer Aktiengesellschaft, priority 2020, dated 2026).

Experiments:
[1] = test system: AMARE; test: Pre-emergence herbicidal action against AMARE; type: in vivo, Amaranthus retroflexus
Method in brief: (§1)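 Herbicidal effect was assessed 3 weeks after treatment by visual comparison with untreated controls, 100% denoting dead plants. Aqueous WP or EC preparations had been applied at 600 to 800 l/ha with 0.2% wetting agent to the soil covering freshly sown seeds.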

[2] = test system: ALOMY; test: Post-emergence herbicidal action against ALOMY; type: in vivo, Alopecurus myosuroides; details: dosage 20 g/ha, visual assessment about 3 weeks after treatment vs untreated controls
Procedure: (§2) Seeds of monocotyledonous and dicotyledonous weed and crop plants are laid out in sandy loam soil in wood-fiber pots, covered with soil and cultivated in a greenhouse under good growth conditions. 2 to 3 weeks after sowing, the test plants are treated at the one-leaf stage. The compounds of the invention, formulated in the form of wettable powders (WP) or as emulsion concentrates (EC), are then sprayed onto the green parts of the plants in the form of an aqueous suspension or emulsion at a water application rate equivalent to 600 to 800 l/ha, with addition of 0.2% wetting agent. After the test plants have been left to stand in the greenhouse under optimal growth conditions for about 3 weeks, the action of the preparations is assessed visually in comparison to untreated controls (herbicidal action in percent (%): 100% activity=the plants have died, 0% activity=like control plants). […] The tables below illustrate, in an illustrative manner, the post-emergence herbicidal action of the compounds of the invention, the herbicidal activity being stated in percent.

[3] = test system: AMARE; test: Post-emergence herbicidal action against AMARE; type: in vivo, Amaranthus retroflexus; details: 20 g/ha, visual assessment about 3 weeks after treatment, 100% = plants have died, 0% = like control plants
Method in brief: (§3)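 Post-emergence greenhouse test; one-leaf stage, 2–3 wk post-sowing, sandy loam. Foliar spray of WP/EC in water, 600–800 l/ha, +0.2% wetting agent. Visual % action at ~3 wk vs untreated (100% = plants dead).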

[4] = test system: ABUTH; test: Pre-emergence herbicidal action against ABUTH; type: in vivo, Abutilon theophrasti; details: for Pre-emergence action against ABUTH (herbicidal activity): 80 g/ha, scored visually after 3 weeks vs untreated controls (100% = plants have died, 0% = like control plants); for Pre-emergence action against ABUTH (herbicidal activity in percent): dosage 20 g/ha, scored visually after 3 weeks vs untreated controls, 100% = plants have died, 0% = like control plants
Method in brief: as §1

[5] = test system: VIOTR; test: Pre-emergence herbicidal action against VIOTR; type: in vivo, Viola tricolor; details: dosage 80 g/ha
Method in brief: as §1

[6] = test system: MATIN; test: Pre-emergence herbicidal action against MATIN; type: in vivo, Matricaria inodora
Method in brief: as §1

[7] = test system: ALOMY; test: Pre-emergence herbicidal action against ALOMY; type: in vivo, Alopecurus myosuroides; details: 80 g/ha, pre-emergence, scored visually after 3 weeks vs untreated controls (100% = plants have died, 0% = like control plants)
Method in brief: as §1

[8] = test system: SETVI; test: Pre-emergence herbicidal action against SETVI; type: in vivo, Setaria viridis
Method in brief: as §1

[9] = test system: PHBPU; test: Post-emergence herbicidal action against PHBPU; type: in vivo, Pharbitis purpurea; details: dosage 20 g/ha
Method in brief: as §3

[10] = test system: VERPE; test: Post-emergence herbicidal action against VERPE; type: in vivo, Veronica persica; details: 20 g/ha
Procedure: as §2

[11] = test system: DIGSA; test: Pre-emergence herbicidal action against DIGSA; type: in vivo, Digitaria sanguinalis
Method in brief: as §1

[12] = test system: ECHCG; test: Post-emergence herbicidal action against ECHCG; type: in vivo, Echinochloa crus-galli
Method in brief: as §3

[13] = test system: VIOTR; test: Post-emergence herbicidal action against VIOTR; type: in vivo, Viola tricolor; details: 20 g/ha
Procedure: as §2

[14] = test system: ECHCG; test: Pre-emergence herbicidal action against ECHCG; type: in vivo, Echinochloa crus-galli
Method in brief: as §1

[15] = test system: SETVI; test: Post-emergence herbicidal action against SETVI; type: in vivo, Setaria viridis; details: dosage 20 g/ha
Method in brief: as §3

[16] = test system: ABUTH; test: Post-emergence herbicidal action against ABUTH; type: in vivo, Abutilon theophrasti; details: dosage 20 g/ha, visual assessment about 3 weeks after treatment vs untreated controls
Method in brief: as §3

[17] = 20 g/ha, scored visually after 3 weeks vs untreated controls, 100% = plants have died, 0% = like control plants
[18] = 80 g/ha, scored visually after 3 weeks vs untreated controls (100% = plants have died, 0% = like control plants)

CN(C)C(=O)CNC(=O)c1c(C(F)F)ccc(C(=O)Nc2nnnn2C)c1Cl [Example 1-160] was tested, and the “Pre-emergence action against AMARE in %” value [1, 17] was 100%, the “Pre-emergence action against AMARE in %” value [1, 18] was 100% and the “Post-emergence action against ALOMY in %” value [2] was 80%. For the same molecule, the “Post-emergence action at 20 g/ha against AMARE in %” value [3] was 100%, the “Pre-emergence action against ABUTH (herbicidal activity)” value [4] was 80% and the “Pre-emergence action against VIOTR in %” value [5] was 80%. The “Pre-emergence action against MATIN in %” value ([6]; dosage 80 g/ha) was 80%.

With CCn1nnnc1NC(=O)c1ccc(C(F)(F)F)c(C(=O)NCC(=O)N(C)C)c1Cl [Example 2-142] the “Pre-emergence action against AMARE in %” value [1, 18] was 100%, the “Post-emergence action against ALOMY in %” value [2] was 80% and the “Post-emergence action at 20 g/ha against AMARE in %” value [3] was 100%. For the same molecule, the “Pre-emergence action against VIOTR in %” value [5] was 100%, the “Pre-emergence action against MATIN in %” value ([6]; dosage 20 g/ha) was 80% and the “Pre-emergence action against MATIN in %” value ([6]; dosage 80 g/ha) was 100%.

For Cc1c(C(=O)Nc2nnnn2C)ccc(C(F)(F)F)c1C(=O)NCC1CCCO1 (stereo not shown) [Example 1-37], the “Pre-emergence action against AMARE in %” value [1, 17] was 100%, the “Pre-emergence action against AMARE in %” value [1, 18] was 100% and the “Pre-emergence action against ALOMY (herbicidal activity)” value [7] was 100%. The “Pre-emergence action against SETVI in %” value ([8]; dosage 20 g/ha) was 90%, the “Pre-emergence action against SETVI in %” value ([8]; dosage 80 g/ha) was 100% and the “Post-emergence action against PHBPU in %” value [9] was 80%. For the same molecule, the “Post-emergence action against VERPE in %” value [10] was 80%, the “Pre-emergence action against DIGSA in %” value ([11]; dosage 20 g/ha) was 80% and the “Pre-emergence action against DIGSA in %” value ([11]; dosage 80 g/ha) was 100%. For the same molecule, the “Post-emergence action against ECHCG in %” value ([12]; dosage 5 g/ha) was 80%, the “Post-emergence action against ECHCG in %” value ([12]; dosage 20 g/ha) was 80% and the “Post-emergence action against VIOTR in %” value [13] was 80%. The “Pre-emergence action against VIOTR in %” value [5] was 100%, the “Pre-emergence action against MATIN in %” value ([6]; dosage 80 g/ha) was 90% and the “Pre-emergence action against ECHCG in %” value ([14]; 80 g/ha) was 80%.

Cc1nnc(NC(=O)c2ccc(C(F)(F)F)c(C(=O)NCC3CC3)c2Br)o1 [Example 6-161] was tested, and the “Pre-emergence action against AMARE in %” value [1, 17] was 100%, the “Pre-emergence action against AMARE in %” value [1, 18] was 100% and the “Post-emergence action against SETVI in %” value [15] was 90%. The “Pre-emergence action against ALOMY (herbicidal activity)” value [7] was 90%, the “Pre-emergence action against SETVI in %” value ([8]; dosage 80 g/ha) was 100% and the “Post-emergence action against ABUTH in %” value [16] was 90%. For the same molecule, the “Post-emergence action against ALOMY in %” value [2] was 90%, the “Post-emergence action against PHBPU in %” value [9] was 80% and the “Post-emergence action against ECHCG in %” value ([12]; dosage 5 g/ha) was 90%. For the same molecule, the “Post-emergence action against ECHCG in %” value ([12]; dosage 20 g/ha) was 90%, the “Post-emergence action at 20 g/ha against AMARE in %” value [3] was 100% and the “Pre-emergence action against ABUTH (herbicidal activity)” value [4] was 100%. For the same molecule, the “Pre-emergence action against ABUTH (herbicidal activity in percent)” value [4] was 100%, the “Pre-emergence action against VIOTR in %” value [5] was 80% and the “Pre-emergence action against MATIN in %” value ([6]; dosage 20 g/ha) was 100%. For the same molecule, the “Pre-emergence action against MATIN in %” value ([6]; dosage 80 g/ha) was 100%, the “Pre-emergence action against ECHCG in %” value ([14]; 20 g/ha) was 80% and the “Pre-emergence action against ECHCG in %” value ([14]; 80 g/ha) was 100%.

CCn1nnnc1NC(=O)c1ccc(C(F)(F)F)c(C(=O)NCC#N)c1C [Example 2-36] was tested, and the “Pre-emergence action against AMARE in %” value [1, 17] was 100%, the “Pre-emergence action against AMARE in %” value [1, 18] was 100% and the “Post-emergence action against ALOMY in %” value [2] was 90%. For the same molecule, the “Pre-emergence action against DIGSA in %” value ([11]; dosage 80 g/ha) was 90%, the “Post-emergence action at 20 g/ha against AMARE in %” value [3] was 90% and the “Pre-emergence action against ABUTH (herbicidal activity)” value [4] was 100%. For the same molecule, the “Pre-emergence action against ABUTH (herbicidal activity in percent)” value [4] was 90%, the “Pre-emergence action against VIOTR in %” value [5] was 100% and the “Pre-emergence action against MATIN in %” value ([6]; dosage 80 g/ha) was 90%.
